PubChem BioAssay AID292 (DTP/NCI, 2004)
“And” between values parts separate entries of the source, which are not always exact repeats. Equal entries are not always repeated. Inconclusive results and toxic doses are left out. Peptide text beside a SMILES is read from it. * marks the point of attachment. Trt = c1ccc(C(c2ccccc2)(c2ccccc2)*)cc1; Cbz = O=C(OCc1ccccc1)*; Bn = c1ccc(C*)cc1; βAla = NCCC(=O)O

Test system: B6C3F1 mice, ip Sarcoma M5076, median survival T/C
Assay: NCI In Vivo Anticancer Drug Screen. Data for tumor model Sarcoma M5076 (intraperitoneal) in B6C3F1 mice
Details: endpoint: median survival time, higher = longer survival
Protocol: The antitumor activity of compounds was measured in mice bearing transplantable tumors. Survival or tumor size were measured and the results are expressed as the measurement made in the treated group (T) divided by the measurement made in the vehicle treated control group (C). The tumor model used in this assay is Sarcoma M5076 (intraperitoneal) in B6C3F1 mice

[1] = dose: 50.0 mg/kg/injection, schedule: Q04DX004 (ip), vehicle: Klucel (hydroxypropylcellulose) (HPC)
[2] = dose: 100.0 mg/kg/injection, schedule: Q04DX004 (ip), vehicle: Klucel (hydroxypropylcellulose) (HPC)
[3] = dose: 200.0 mg/kg/injection, schedule: Q04DX004 (ip), vehicle: Klucel (hydroxypropylcellulose) (HPC)
[4] = dose: 400.0 mg/kg/injection, schedule: Q04DX004 (ip), vehicle: Klucel (hydroxypropylcellulose) (HPC)
[5] = dose: 800.0 mg/kg/injection, schedule: Q04DX004 (ip), vehicle: Klucel (hydroxypropylcellulose) (HPC)
[6] = dose: 2.0 mg/kg/injection, schedule: Q04DX004 (ip), vehicle: water
[7] = dose: 25.0 mg/kg/injection, schedule: Q04DX004 (ip), vehicle: saline with Tween-80
[8] = dose: 50.0 mg/kg/injection, schedule: Q04DX004 (ip), vehicle: saline with Tween-80
[9] = dose: 100.0 mg/kg/injection, schedule: Q04DX004 (ip), vehicle: saline with Tween-80
[10] = dose: 200.0 mg/kg/injection, schedule: Q04DX004 (ip), vehicle: saline with Tween-80
[11] = dose: 400.0 mg/kg/injection, schedule: Q04DX004 (ip), vehicle: saline with Tween-80

SMILES: O=C1C=CC2OC(c3ccccc3)C(O)C2O1 (stereo unspecified)
- T/C (dose: 6.25 mg/kg/injection, schedule: Q04DX004 (ip), vehicle: DMSO): 105 % of control
- T/C (dose: 12.5 mg/kg/injection, schedule: Q04DX004 (ip), vehicle: DMSO): 107 % of control
- T/C (dose: 25.0 mg/kg/injection, schedule: Q04DX004 (ip), vehicle: DMSO): 112 % of control
- T/C (dose: 50.0 mg/kg/injection, schedule: Q04DX004 (ip), vehicle: DMSO): 107 % of control

SMILES: COc1ccc([C@@]23Oc4cc(OC)cc(OC)c4[C@]2(O)[C@H](O)[C@H](C(=O)N(C)C)[C@H]3c2ccccc2)cc1
- T/C (dose: 1.0 mg/kg/injection, schedule: Q04DX004 (ip), vehicle: Klucel (hydroxypropylcellulose) (HPC)): 97 % of control
- T/C (dose: 2.0 mg/kg/injection, schedule: Q04DX004 (ip), vehicle: Klucel (hydroxypropylcellulose) (HPC)): 105 % of control
- T/C (dose: 4.0 mg/kg/injection, schedule: Q04DX004 (ip), vehicle: Klucel (hydroxypropylcellulose) (HPC)): 109 % of control
- T/C (dose: 8.0 mg/kg/injection, schedule: Q04DX004 (ip), vehicle: Klucel (hydroxypropylcellulose) (HPC)): 123 % of control

SMILES: CCCC1(c2ccccc2)C(=O)NCNC1=O
- T/C [1]: 99 % of control
- T/C [2]: 95 % of control
- T/C [3]: 88 % of control
- T/C [4]: 88 % of control
- T/C [5]: 88 % of control

SMILES: CNNCc1ccc(C(=O)NC(C)C)cc1
- T/C (dose: 22.0 mg/kg/injection, schedule: Q04DX004 (ip), vehicle: saline): 119 % of control
- T/C (dose: 88.0 mg/kg/injection, schedule: Q04DX004 (ip), vehicle: saline): 152 % of control
- T/C (dose: 352.0 mg/kg/injection, schedule: Q04DX004 (ip), vehicle: saline): 152 % of control

SMILES: N#CC1C(=O)NC(=O)C(C#N)C1CCc1ccccc1 (stereo unspecified)
- T/C (dose: 50.0 mg/kg/injection, schedule: Q04DX004 (ip), vehicle: Klucel + Tween-80): 105 % of control
- T/C (dose: 100.0 mg/kg/injection, schedule: Q04DX004 (ip), vehicle: Klucel + Tween-80): 97 % of control
- T/C (dose: 200.0 mg/kg/injection, schedule: Q04DX004 (ip), vehicle: Klucel + Tween-80): 105 % of control

SMILES: Nc1ccn([C@@H]2C=C(CO)[C@@H](O)[C@H]2O)c(=O)n1
- T/C (dose: 0.13 mg/kg/injection, schedule: Q01DX013 (ip), vehicle: saline): 96 % of control
- T/C (dose: 0.25 mg/kg/injection, schedule: Q01DX013 (ip), vehicle: saline): 104 % of control
- T/C (dose: 0.5 mg/kg/injection, schedule: Q01DX013 (ip), vehicle: saline): 105 % of control

SMILES: O=C1c2c(O)ccc(O)c2C(=O)c2c(NCCNCCO)ccc(NCCNCCO)c21
- T/C (dose: 0.25 mg/kg/injection, schedule: Q04DX005 (ip), vehicle: saline): 319 % of control
- T/C (dose: 0.5 mg/kg/injection, schedule: Q04DX004 (ip), vehicle: water): 161 % of control
- T/C (dose: 0.5 mg/kg/injection, schedule: Q04DX005 (ip), vehicle: saline): 319 % of control
- T/C (dose: 1.0 mg/kg/injection, schedule: Q04DX004 (ip), vehicle: water): 174 % of control
- T/C (dose: 1.0 mg/kg/injection, schedule: Q04DX005 (ip), vehicle: saline): 319 % of control
- T/C [6]: 224 % of control
- T/C (dose: 2.0 mg/kg/injection, schedule: Q04DX005 (ip), vehicle: saline): 298 % of control

SMILES: CN(C)C(=O)SC1=C(c2c(Cl)cccc2Cl)C(=O)c2ccccc21
- T/C (dose: 37.5 mg/kg/injection, schedule: Q04DX004 (ip), vehicle: Klucel (hydroxypropylcellulose) (HPC)): 97 % of control
- T/C (dose: 75.0 mg/kg/injection, schedule: Q04DX004 (ip), vehicle: Klucel (hydroxypropylcellulose) (HPC)): 113 % of control
- T/C (dose: 150.0 mg/kg/injection, schedule: Q04DX004 (ip), vehicle: Klucel (hydroxypropylcellulose) (HPC)): 104 % of control
- T/C (dose: 300.0 mg/kg/injection, schedule: Q04DX004 (ip), vehicle: Klucel (hydroxypropylcellulose) (HPC)): 95 % of control
- T/C (dose: 1200.0 mg/kg/injection, schedule: Q04DX004 (ip), vehicle: Klucel (hydroxypropylcellulose) (HPC)): 95 % of control

SMILES: CCN(CC)CC(=O)O[C@]1(CC)C(=O)OCc2c1cc1n(c2=O)Cc2cc3ccccc3nc2-1
- T/C [6]: 106 % of control and 110 % of control
- T/C (dose: 4.0 mg/kg/injection, schedule: Q04DX004 (ip), vehicle: water): 107 % of control and 108 % of control
- T/C (dose: 8.0 mg/kg/injection, schedule: Q04DX004 (ip), vehicle: water): 120 % of control and 124 % of control

SMILES: CN1[C@H]2C=CC(=O)[C@]1(Cl)[C@H]1C(=O)N(c3ccccc3)C(=O)[C@@H]21
- T/C [7]: 102 % of control and 107 % of control
- T/C [8]: 101 % of control and 107 % of control
- T/C [9]: 95 % of control and 100 % of control
- T/C [10]: 94 % of control
- T/C [11]: 101 % of control

SMILES: Clc1cccc(Cl)c1C(Nc1nncs1)Nc1nncs1
- T/C [8]: 112 % of control and 122 % of control
- T/C [9]: 123 % of control
- T/C [11]: 164 % of control
- T/C (dose: 800.0 mg/kg/injection, schedule: Q04DX004 (ip), vehicle: saline with Tween-80): 157 % of control and 195 % of control

SMILES: COc1ccc2c(c1)n([O-])c1ccccc1[n+]2=O
- T/C [7]: 115 % of control
- T/C [8]: 117 % of control
- T/C [9]: 121 % of control

SMILES: Nc1ncnc2c1ncn2C1CC2[O][Sn]([c]3ccccc3)([c]3ccccc3)[O]CC2O1 (stereo unspecified)
- T/C (dose: 31.13 mg/kg/injection, schedule: Q04DX004 (ip), vehicle: distilled water + Tween-80): 95 % of control
- T/C (dose: 62.5 mg/kg/injection, schedule: Q04DX004 (ip), vehicle: distilled water + Tween-80): 92 % of control
- T/C (dose: 125.0 mg/kg/injection, schedule: Q04DX004 (ip), vehicle: distilled water + Tween-80): 101 % of control
- T/C (dose: 250.0 mg/kg/injection, schedule: Q04DX004 (ip), vehicle: distilled water + Tween-80): 101 % of control
- T/C (dose: 500.0 mg/kg/injection, schedule: Q04DX004 (ip), vehicle: distilled water + Tween-80): 104 % of control

SMILES: COc1nc2cc3c(cc2n2cccc12)oc1ccccc13
- T/C (dose: 0.38 mg/kg/injection, schedule: Q04DX004 (ip), vehicle: saline with Tween-80): 92 % of control
- T/C (dose: 0.75 mg/kg/injection, schedule: Q04DX004 (ip), vehicle: saline with Tween-80): 89 % of control

SMILES: CC[C@](O)(C(=O)O)c1cc2n(c(=O)c1CO)Cc1cc3ccccc3nc1-2
- T/C (dose: 3.12 mg/kg/injection, schedule: Q04DX004 (ip), vehicle: saline): 115 % of control
- T/C (dose: 6.25 mg/kg/injection, schedule: Q04DX004 (ip), vehicle: saline): 115 % of control and 123 % of control
- T/C (dose: 12.5 mg/kg/injection, schedule: Q04DX004 (ip), vehicle: saline): 119 % of control
- T/C (dose: 25.0 mg/kg/injection, schedule: Q04DX004 (ip), vehicle: saline): 123 % of control
- T/C (dose: 50.0 mg/kg/injection, schedule: Q04DX004 (ip), vehicle: saline): 114 % of control

SMILES: Cc1ccc(C(=Nc2ccccc2)N=P(c2ccccc2)(c2ccccc2)c2ccccc2)cc1
- T/C [7]: 106 % of control
- T/C [8]: 93 % of control

SMILES: CCC1OCC(C(Cl)CCl)O1 (stereo unspecified)
- T/C [8]: 100 % of control
- T/C [9]: 97 % of control
- T/C [10]: 93 % of control

SMILES: O=C(O)c1cccc2c1ccc1ccccc12
- T/C (dose: 4.0 mg/kg/injection, schedule: Q04DX004 (ip), vehicle: saline with Tween-80): 109 % of control
- T/C (dose: 8.0 mg/kg/injection, schedule: Q04DX004 (ip), vehicle: saline with Tween-80): 102 % of control
- T/C (dose: 8.0 mg/kg/injection, schedule: Q04DX005 (ip), vehicle: saline): 98 % of control
- T/C (dose: 16.0 mg/kg/injection, schedule: Q04DX004 (ip), vehicle: saline with Tween-80): 107 % of control
- T/C (dose: 16.0 mg/kg/injection, schedule: Q04DX005 (ip), vehicle: saline): 93 % of control
- T/C (dose: 32.0 mg/kg/injection, schedule: Q04DX004 (ip), vehicle: saline with Tween-80): 105 % of control
- T/C (dose: 32.0 mg/kg/injection, schedule: Q04DX005 (ip), vehicle: saline): 96 % of control
- T/C (dose: 64.0 mg/kg/injection, schedule: Q04DX004 (ip), vehicle: saline with Tween-80): 103 % of control
- T/C (dose: 64.0 mg/kg/injection, schedule: Q04DX005 (ip), vehicle: saline): 94 % of control
- T/C (dose: 128.0 mg/kg/injection, schedule: Q04DX005 (ip), vehicle: saline): 96 % of control

SMILES: COC(=O)C(CSC(c1ccccc1)(c1ccccc1)c1ccccc1)NC(=O)C(CSCc1ccccc1)NC(=O)CCNC(=O)OCc1ccccc1 (stereo unspecified) ({Cbz-βAla}-Cys(Bn)-Cys(Trt)-OMe; configuration not given here)
- T/C [1]: 102 % of control
- T/C [2]: 97 % of control
- T/C [3]: 106 % of control
- T/C [4]: 89 % of control
- T/C [5]: 107 % of control
